Patent publication US9447086B2, “6-amino acid heteroaryldihydropyrimidines for the treatment and prophylaxis of hepatitis B virus infection” (priority 2012, dated 2016)
≈ marks a conversion by molar mass, not a printed value.

Assays:
[1] = Metabolic stability study in human microsome; format: in vitro ADME
Method: Human Microsomes were preincubated with test compound for 10 min at 37° C. in 100 mM phosphate buffer, pH 7.4. The reactions were initiated by adding NADPH or NADPH regenerating system to give a final incubation volume of 400 μL. For NADPH system, the final incubations contained 1 μM test compound, 0.5 mg/mL liver microsomal protein, 1 mM NADPH in 100 mM phosphate buffer, pH 7.4. For the NADPH regenerating system, the final incubations contained 1 μM test compound, 0.5 mg/mL liver microsomal protein, 3 mM glucose 6-phosphate, 1 mM NADP, 3 mM MgCl2 and 0.05 mg/mL glucose 6-phosphate dehydrogenase in 100 mM phosphate buffer, pH 7.4. After incubation times of 0, 3, 6, 9, 15 and 30 minutes at 37° C., 50 μL samples was removed and transferred to 150 μL methanol solution which was maintained at 4° C. containing 2 μM tolbutamide (internal standard) to terminating the reaction. Following precipitation and centrifugation, the amount of compound remaining in the samples were determined by LC-MS/MS. Controls of no NADPH or NADPH regenerating system at zero and 30 min were also prepared and analyzed.

[2] = Lyophilisation solubility assay (Lysa); format: physicochemical; details: phosphate buffer, pH 6.5, aqueous buffer, thermodynamic from solid
Method: The aqueous solubility is an important physico-chemical property that plays a significant role in various physical and biological processes. It is desirable to have good solubility which enables good permeability and gastric and intestinal absorption, linear dose proportionality, less PK variability, and easy formulation for PD/PK studies. […] Lyophilisation solubility assay (Lysa) is a well adopted high throughput assay to measure compound solubility in industry.
Samples are prepared in duplicate from 10 mM DMSO stock solutions. After evaporation of DMSO with a centrifugal vacuum evaporator, the residue is solved in 0.05 M phosphate buffer (pH 6.5), stirred for one hour and shaken for two hours. After one night, the solutions is filtered using a microtiter filter plate and the filtrate and its 1/10 dilution are then analyzed by direct UV measurement or by HPLC-UV. […] The results are in μg/mL.

| SMILES | Human Hepatic Clearance [1] | solubility thermodynamic [2] |
| --- | --- | --- |
| COC(=O)C1=C(CN2CC(F)(F)C[C@H]2C(=O)O)NC(c2nc(C)cn2C)=NC1c1ccc(F)cc1Cl (stereo partly drawn) [Example 20, 6-((S)-2-Carboxy-4,4-difluoro-pyrrolidin-1-ylmethyl)-4-(2-chloro-4-fluoro-phenyl)-2-(1,4-dimethyl-1H-imidazol-2-yl)-1,4-dihydro-pyrimidine-5-carboxylic acid methyl ester] | 10.74 mL/min/kg | 683 µg/mL (≈ 1300 µM) |
| COC(=O)C1=C(CN2CSCCC2C(=O)O)NC(c2nccs2)=N[C@H]1c1ccc(F)cc1Cl (stereo partly drawn) [Example 86, 3-[[(4R)-4-(2-Chloro-4-fluoro-phenyl)-5-methoxycarbonyl-2-thiazol-2-yl-1,4-dihydropyrimidin-6-yl]methyl]-1,3-thiazinane-4-carboxylic acid] | 6.8 mL/min/kg | > 596 µg/mL |
| COC(=O)C1=C(CN2CCOC[C@H]2C(=O)O)NC(c2nccn2C)=NC1c1ccc(F)cc1Cl (stereo partly drawn) [Example 13, (S)-4-[6-(2-Chloro-4-fluoro-phenyl)-5-methoxycarbonyl-2-(1-methyl-1H-imidazol-2-yl)-3,6-dihydro-pyrimidin-4-ylmethyl]-morpholine-3-carboxylic acid] | 2.33 mL/min/kg | 594 µg/mL (≈ 1210 µM) |
| COC(=O)C1=C(CN2CCSC(C)(C)[C@H]2C(=O)O)NC(c2nccs2)=N[C@H]1c1ccc(F)cc1Cl [Example 90, (3R)-4-[[(4R)-4-(2-Chloro-4-fluoro-phenyl)-5-methoxycarbonyl-2-thiazol-2-yl-1,4-dihydropyrimidin-6-yl]methyl]-2,2-dimethyl-thiomorpholine-3-carboxylic acid] | 5.52 mL/min/kg | > 610 µg/mL |
| CCOC(=O)C1=C(CN2CCOC[C@H]2C(=O)O)NC(c2cccc(C)n2)=N[C@H]1c1ccc(F)cc1Cl [Example 37, (S)-4-[(R)-6-(2-Chloro-4-fluoro-phenyl)-5-ethoxycarbonyl-2-(6-methyl-pyridin-2-yl)-3,6-dihydro-pyrimidin-4-ylmethyl]-morpholine-3-carboxylic acid] | 7 mL/min/kg | > 593 µg/mL |
| COC(=O)C1=C(CN2CCOC[C@H]2C(=O)O)NC(c2cc(C)ccn2)=N[C@H]1c1ccc(F)cc1Cl [Example 9, (S)-4-[(R)-6-(2-Chloro-4-fluoro-phenyl)-5-methoxycarbonyl-2-(4-methyl-pyridin-2-yl)-3,6-dihydro-pyrimidin-4-ylmethyl]-morpholine-3-carboxylic acid] | 10.07 mL/min/kg | > 645 µg/mL |
| COC(=O)C1=C(CN2CC(F)(F)C[C@H]2C(=O)O)NC(c2cc(C)cs2)=N[C@H]1c1ccc(F)cc1Cl [Example 27, (R)-6-((S)-2-Carboxy-4,4-difluoro-pyrrolidin-1-ylmethyl)-4-(2-chloro-4-fluoro-phenyl)-2-(4-methyl-thiophen-2-yl)-1,4-dihydro-pyrimidine-5-carboxylic acid methyl ester] | 8.79 mL/min/kg | – |
| COC(=O)C1=C(CN2CC(F)(F)C[C@H]2C(=O)O)NC(c2nccs2)=NC1c1ccc(F)cc1Cl (stereo partly drawn) [Example 1, 6-((S)-2-Carboxy-4,4-difluoro-pyrrolidin-1-ylmethyl)-4-(2-chloro-4-fluoro-phenyl)-2-thiazol-2-yl-1,4-dihydro-pyrimidine-5-carboxylic acid methyl ester] | 7.51 mL/min/kg | – |
| CCOC(=O)C1=C(CN2CCOC[C@H]2C(=O)O)NC(c2nccs2)=N[C@H]1c1ccc(Cl)cc1 [Example 126, (3S)-4-[[(4S)-4-(4-Chlorophenyl)-5-ethoxycarbonyl-2-(1,3-thiazol-2-yl)-1,4-dihydropyrimidin-6-yl]methyl]morpholine-3 carboxylic acid] | 0 mL/min/kg | – |
| COC(=O)C1=C(CN2CC(F)(F)CCC2C(=O)O)NC(c2nccs2)=N[C@H]1c1ccc(F)cc1Cl (stereo partly drawn) [Example 7, (R)-6-(2-Carboxy-5,5-difluoro-piperidin-1-ylmethyl)-4-(2-chloro-4-fluoro-phenyl)-2-thiazol-2-yl-1,4-dihydro-pyrimidine-5-carboxylic acid methyl ester] | 6.12 mL/min/kg | 398 µg/mL (≈ 752 µM) |
| COC(=O)C1=C(CN2CCOC[C@H]2C(=O)O)NC(c2nccs2)=N[C@H]1c1cc(F)c(F)cc1Cl [Example 21, (S)-4-[(R)-6-(2-Chloro-4,5-difluoro-phenyl)-5-methoxycarbonyl-2-thiazol-2-yl-3,6-dihydro-pyrimidin-4-ylmethyl]-morpholine-3-carboxylic acid] | 3.08 mL/min/kg | 828 µg/mL (≈ 1610 µM) |
| CCOC(=O)C1=C(CN2CC(F)(F)C[C@H]2C(=O)O)NC(c2nc(C(F)(F)F)cn2C)=N[C@H]1c1ccc(F)cc1Cl [Example 40, (R)-6-((S)-2-Carboxy-4,4-difluoro-pyrrolidin-1-ylmethyl)-4-(2-chloro-4-fluoro-phenyl)-2-(1-methyl-4-trifluoromethyl-1H-imidazol-2-yl)-1,4-dihydro-pyrimidine-5-carboxylic acid ethyl ester] | 8.45 mL/min/kg | 409 µg/mL (≈ 689 µM) |
| COC(=O)C1=C(CN2CC(F)(F)C[C@H]2C(=O)O)NC(c2nccs2)=N[C@H]1c1cc(F)c(F)cc1Cl [Example 18, (R)-6-((S)-2-Carboxy-4,4-difluoro-pyrrolidin-1-ylmethyl)-4-(2-chloro-4,5-difluoro-phenyl)-2-thiazol-2-yl-1,4-dihydro-pyrimidine-5-carboxylic acid methyl ester] | 3.38 mL/min/kg | > 659 µg/mL |
| COC(=O)C1=C(CN2CC(F)(F)C(C)(C)[C@H]2C(=O)O)NC(c2nccs2)=N[C@H]1c1ccc(F)cc1Cl [Example 89, (R)-6-((S)-2-Carboxy-4,4-difluoro-3,3-dimethyl-pyrrolidin-1-ylmethyl)-4-(2-chloro-4-fluoro-phenyl)-2-thiazol-2-yl-1,4-dihydro-pyrimidine-5-carboxylic acid methyl ester] | 6.13 mL/min/kg | > 525 µg/mL |
| COC(=O)C1=C(CN2CC(F)(F)C[C@H]2C(=O)O)NC(c2nccs2)=N[C@H]1c1ccc(C#N)cc1Cl [Example 30, (R)-6-((S)-2-Carboxy-4,4-difluoro-pyrrolidin-1-ylmethyl)-4-(2-chloro-4-cyano-phenyl)-2-thiazol-2-yl-1,4-dihydro-pyrimidine-5-carboxylic acid methyl ester] | 6.56 mL/min/kg | 667 µg/mL (≈ 1280 µM) |
| CC(C)(C)OC(=O)C1=C(CN2CCOC[C@H]2C(=O)O)NC(c2nccs2)=N[C@H]1c1ccc(F)cc1Cl [Example 105, (S)-4-[5-tert-Butoxycarbonyl-6-(2-chloro-4-fluoro-phenyl)-2-thiazol-2-yl-3,6-dihydro-pyrimidin-4-ylmethyl]-morpholine-3-carboxylic acid] | 8.13 mL/min/kg | – |
